Reference: patent publication US9561201B2, “Therapeutic compounds” (Fibrotech Therapeutics Pty Ltd, priority 2006, dated 2017)

Legend:
rat mesangial cell line [1] = assay: TGF-β stimulated 3H-proline incorporation in mesangial cells (Example 5); assay type: cell-based; conditions: for Collagen synthesis: inhibition ranked against tranilast (T) or FT11
Description: (§1) A well-characterized cloned rat mesangial cell line (gift of D Nikolic-Patterson) is cultured in DMEM with FBS, 100 U/mL penicillin, and 100 ug/mL streptomycin in a humidified 5% CO2 atmosphere at 37° C. Cells are plated into 24-well culture dishes in DMEM/10% FBS at low density and allowed to adhere overnight. Cells are used between passages 20 and 40. The subconfluent cells are starved overnight in DMEM/0.1% FBS containing 150 uM L-ascorbic acid, prior to 4 hours of pre-treatment with or without tranilast or the FT compounds, followed by the addition of 5 ng/mL rhTGF-β11 (R&D Systems) and 1 uCi/mL of L-(2,3,4,5-^3H)-proline. Control wells have the compounds but no TGF-β1 added. Cells are incubated for a further 44 hours during which time their appearance is visually monitored. The cells are then washed three times in ice-cold PBS, twice in ice cold 10% TCA and solubilized in 750 uL 1M NaOH for 45 minutes at 37° C. or overnight at 4° C. A 500 uL aliquot is neutralized with 500 uL 1M HCl and 10 mL scintillation fluid (Instagel Plus-Perkin-Elmer) added. Counts are performed on a beta counter.
To normalize the proline incorporation counts to take into account the proliferative effects of TGF-β1, a BioRad protein assay is performed on a 100-150 uL aliquot of the remaining solubilized cells. The sample is neutralized with an equal amount of 1M HCl prior to the assay. The BSA standards used to construct the standard curve have the same amount of 1M NaOH and 1M HCl added as is present in the samples for assay.
Proline incorporation is expressed as cpm/ug protein. In order to compare inter-assay results, the incorporation is expressed as percentage reduction of TGF stimulated proline incorporation, where TGF alone gives 0% reduction and the zero control gives 100% reduction.

rat mesangial cell line [2] = assay: Effect on mesangial cell appearance (visual monitoring during proline assay); assay type: cell-based
Description: as §1
Compounds in Bold have Minimal Effect on Cell Appearance and Viability

[3] = Rattus norvegicus, Mesangial cell, @ 30 μM, 5 ng/mL TGF-β1, 44 h, read-out: Mesangial Cell Assay TGF-β % reduction of TGF-β stimulation_proline inc.
[4] = Rattus norvegicus, Mesangial cell, 5 ng/mL TGF-β1, 44 h, read-out: Mesangial Cell Assay TGF-β % reduction of TGF-β stimulation_proline inc.
[5] = Rattus norvegicus, Mesangial cell, @ 10 μM, 5 ng/mL TGF-β1, 44 h, read-out: Mesangial Cell Assay TGF-β % reduction of TGF-β stimulation_proline inc.

| melting point | Compound | inhibition at 30 µM (rat mesangial cell line [1]; [3]) | Collagen synthesis (rat mesangial cell line [1]) | other results |
| --- | --- | --- | --- | --- |
| – | COc1ccc(/C=C/C(=O)Nc2ccccc2C(=O)O)cc1OC [Analogue 1, (E)-2-[[3-(3,4-Dimethoxyphenyl)-1-oxo-2-propenyl]amino]benzoic acid] | 20 to 50% | =T | inhibition at 100 µM (rat mesangial cell line [1]; [4]): 50 to 70%; Effect on mesangial cell appearance (rat mesangial cell line [2]; @ 100 μM): stress @ |
| 188 to 189 °C | O=C(/C=C/c1ccccc1)Nc1ccccc1C(=O)O [Analogue 2, (E)-2-[(1-Oxo-3-phenyl-2-propenyl)amino]benzoic acid] | – | <<T | – |
| – | COc1ccc(/C=C/C(=O)Nc2ccccc2C(=O)O)cc1 [Analogue 3, (E)-2-[[3-(4-Methoxyphenyl)-1-oxo-2-propenyl]amino]benzoic acid] | – | <<T | – |
| 183 to 184 °C | COc1cccc(/C=C/C(=O)Nc2ccccc2C(=O)O)c1 [Analogue 4, (E)-2-[[3-(3-Methoxyphenyl)-1-oxo-2-propenyl]amino]benzoic acid] | – | <<T | – |
| 204 to 206 °C | O=C(/C=C/c1ccc(O)c(O)c1)Nc1ccccc1C(=O)O [Analogue 5, (E)-2-[[3-(3,4-Dihydroxyphenyl)-1-oxo-2-propenyl]amino]benzoic acid] | – | May be toxic | Effect on mesangial cell appearance (rat mesangial cell line [2]; no concentration stated): Cells looking |
| 207.5 to 208.5 °C | COc1cc(/C=C/C(=O)Nc2ccccc2C(=O)O)ccc1O [Analogue 6, (E)-2-[[3-(4-Hydroxy-3-methoxyphenyl)-1-oxo-2-propenyl]amino]benzoic acid] | – | <=T | inhibition at 10 µM (rat mesangial cell line [1]; [5]): 20%; inhibition at 50 µM (rat mesangial cell line [1]; Rattus norvegicus, Mesangial cell, @ 50 μM, 5 ng/mL TGF-β1, 44 h, read-out: Mesangial Cell Assay TGF-β % reduction of TGF-β stimulation_proline inc.): 45% |
| 236 to 239 °C | COc1ccc(/C=C/C(=O)Nc2cc(OC)c(OC)cc2C(=O)O)cc1OC [Analogue 9, (E)-2-[[3-(3,4-Dimethoxyphenyl)-1-oxo-2-propenyl]amino]-4,5-dimethoxybenzoic acid] | – | <<T | – |
| 137 °C | COc1ccc(CCC(=O)Nc2ccccc2C(=O)O)cc1OC [Analogue 10, 2-[[3-(3,4-Dimethoxyphenyl)-1-oxopropyl]amino]benzoic acid] | – | <<T | – |
| – | COc1ccc(/C=C/C(=O)Nc2ccccc2C(N)=O)cc1OC [Analogue 12, (E)-2-[[3-(3,4-Dimethoxyphenyl)-1-oxo-2-propenyl]amino]benzamide] | 20% | <FT11 | inhibition at 10 µM (rat mesangial cell line [1]; [5]): ~13%; inhibition at 100 µM (rat mesangial cell line [1]; [4]): 36%; Effect on mesangial cell appearance (rat mesangial cell line [2]; @ 100 μM): sparse @ |
| – | COc1ccc(/C=C/C(=O)Nc2ccccc2)cc1OC [Analogue 13, (E)-[3-(3,4-Dimethoxyphenyl)-1-oxo-2-propenyl]aminobenzene] | ~20% | <FT11 | inhibition at 100 µM (rat mesangial cell line [1]; [4]): ~55%; Effect on mesangial cell appearance (rat mesangial cell line [2]; @ 100 μM): sparse @ |
| – | COc1ccc(/C=C/C(=O)Nc2ccc(C(=O)O)cc2)cc1OC [Analogue 14, (E)-4-[[3-(3,4-Dimethoxyphenyl)-1-oxo-2-propenyl]amino]benzoic acid] | – | <FT11 | inhibition at 100 µM (rat mesangial cell line [1]; [4]): ~30% |
| – | C#CCNC(=O)c1ccccc1NC(=O)/C=C/c1ccc(OC)c(OC)c1 [Analogue 15, (E)-2-[[3-(3,4-Dimethoxyphenyl)-1-oxo-2-propenyl]amino]-N-propargylbenzamide] | 36% | <FT11 | inhibition at 10 µM (rat mesangial cell line [1]; [5]): ~24%; inhibition at 100 µM (rat mesangial cell line [1]; [4]): 75%; Effect on mesangial cell appearance (rat mesangial cell line [2]; @ 30 μM): sparse @ 30; Effect on mesangial cell appearance (rat mesangial cell line [2]; @ 100 μM): sparse @ 30 |
| – | CCC#CCOc1cc(/C=C/C(=O)Nc2ccccc2C(=O)O)ccc1OC [Analogue 19] | – | >FT11 | Mesangial Cell Assay TGF-β % reduction of TGF-β stimulation_proline inc. (rat mesangial cell line [1]; @ 10 μM, 5 ng/mL TGF-β1, 44 h): ~80% @ 10; Mesangial Cell Assay TGF-β % reduction of TGF-β stimulation_proline inc. (rat mesangial cell line [1]; @ 30 μM, 5 ng/mL TGF-β1, 44 h): 100% @ 30 |
| – | COc1cc(/C=C/C(=O)Nc2ccccc2C(=O)O)ccc1OCc1cn(CC(=O)Nc2ccccc2)nn1 [Analogue 20, (E)-2-[[3-(3-Methoxy-4-((1-(2-oxo-2-(phenylamino)ethyl)-1H-1,2,3-triazol-4-yl)methoxy)phenyl)-1-oxo-2-propenyl]amino]benzoic acid] | 50% | =FT11 | inhibition at 10 µM (rat mesangial cell line [1]; [5]): 30%; inhibition at 100 µM (rat mesangial cell line [1]; [4]): 90%; Effect on mesangial cell appearance (rat mesangial cell line [2]; @ 100 μM): dead |
| – | CC#CCOc1ccc(/C=C/C(=O)Nc2ccccc2C(=O)O)cc1OC [Analogue 22, (E)-2-[[3-(4-(But-2-ynyloxy)-3-methoxyphenyl)-1-oxo-2-propenyl]amino]benzoic acid] | ~70% | =FT11 | inhibition at 3 µM (rat mesangial cell line [1]; Rattus norvegicus, Mesangial cell, @ 3 μM, 5 ng/mL TGF-β1, 44 h, read-out: Mesangial Cell Assay TGF-β % reduction of TGF-β stimulation_proline inc.): ~37%; inhibition at 10 µM (rat mesangial cell line [1]; [5]): 56%; Effect on mesangial cell appearance (rat mesangial cell line [2]; @ 100 μM): dead |
| – | COc1ccc(/C=C/C(=O)Nc2ccccc2C(=O)NCc2cn(CC(=O)Nc3ccccc3)nn2)cc1OC [Analogue 32, (E)-2-(3-(3,4-Dimethoxyphenyl)acrylamido)-N-((1-(2-oxo-2-(phenylamino)ethyl)-1H-1,2,3-triazol-4-yl)methyl)benzamide] | 62% | Toxic | inhibition at 10 µM (rat mesangial cell line [1]; [5]): ~26%; Effect on mesangial cell appearance (rat mesangial cell line [2]; no concentration stated): Dead |
| – | COc1cc(/C=C/C(=O)Nc2ccccc2C(=O)O)ccc1OCc1ccccc1 [Analogue 43, (E)-2-[[3-(4-Benzyloxy-3-methoxyphenyl)-1-oxo-2-propenyl]amino]benzoic acid] | 70% | – | inhibition at 10 µM (rat mesangial cell line [1]; [5]): 48%; Effect on mesangial cell appearance (rat mesangial cell line [2]; @ 30 μM): Sick @; Effect on mesangial cell appearance (rat mesangial cell line [2]; @ 100 μM): Sick @ |
| – | COc1cc(/C=C/C(=O)Nc2ccccc2C(=O)O)ccc1OCc1ccc2ccccc2c1 [Analogue 44, (E)-2-[[3-(3-Methoxy-4-(naphth-2-ylmethoxy)phenyl)-1-oxo-2-propenyl]amino]benzoic acid] | – | Toxic | Effect on mesangial cell appearance (rat mesangial cell line [2]; @ all concentrations): Cells damaged @ |
| 209 to 211 °C | COc1ccc(/C=C/C(=O)Nc2ccccc2C(=O)O)cn1 [Analogue 46, (E)-2-[[3-(6-Methoxypyridin-3-yl)-1-oxo-2-propenyl]amino]benzoic acid] | – | <<FT11 | – |
| 112 to 114 °C | COc1cc(/C=C/C(=O)Nc2ccccc2C(=O)O)ccc1OCC(=O)C12CC3CC(CC(C3)C1)C2 [Analogue 47] | – | – | – |
| 195 to 201 °C | COc1cc(/C=C/C(=O)Nc2ccccc2C(=O)O)ccc1OCCN1CCOCC1 [Analogue 48, (E)-2-[[3-(3-Methoxy-4-(2-morpholinoethoxy)phenyl)-1-oxo-2-propenyl]amino]benzoic acid] | – | – | – |
| 245 to 251 °C | COc1cc(/C=C/C(=O)Nc2ccccc2C(=O)O)ccc1OCc1cccnc1 [Analogue 49, (E)-2-[[3-(3-Methoxy-4-(pyridin-3-ylmethoxy)phenyl)-1-oxo-2-propenyl]amino]benzoic acid] | – | – | – |
| 227 to 229 °C | COc1ccc(/C=C/C(=O)Nc2ccccc2C(=O)O)cc1OCc1c(C)noc1C [Analogue 50, (E)-2-[[3-((3-(3,5-Dimethylisoxazol-4-yl)methoxy)-4-methoxyphenyl)-1-oxo-2-propenyl]amino]benzoic acid] | – | – | – |
| 202 to 205 °C | CCN(CC)Cc1cc(/C=C/C(=O)Nc2ccccc2C(=O)O)ccc1OC [Analogue 51, (E)-2-[[3-(3-((Diethylamino)methyl)-4-methoxyphenyl)-1-oxo-2-propenyl]amino]benzoic acid] | – | – | – |
